# Experimental data taken from patent US20060160197A1 (priority 2004, published 2006).
# Legend:
# Assay type in all cases: physicochemical
# [1] = Example 9 reactive solvent extraction, 90% Alamine 336/10% 1-octanol, 75° C.; conditions: pH 2 to 3
# Protocol: (§1) A variety of analytical methods can be employed to analyze the reactants and products produced using the present methods include HPLC, GC, ion selective electrodes, MS, NMR, etc. HPLC was used to measure glycolic acid and various related products. Briefly, samples are diluted with water (as needed to be within HPLC detection range) and mixed 1:1 with 0.2 M n-propanol in water (HPLC internal standard). HPLC Analytical Method: (BioRad HPX 87H ion exclusion column (BioRad, Hercules, Calif.), 300 mm×7.8 mm; 0.01 N H2SO4 mobile phase; 1.0 mL/min flow at 50° C.; 10 μL injection volume; RI detector and UV 210 nm, 20 min analysis time). HPLC Equipment: (Waters 2695 ‘Alliance’ Separations Module, 2410 Refractive Index Detector, 2487 Dual λ Absorbance Detector and Empower Pro Software (Waters Corp, Milford, Mass.).
# Solvent Extraction Using Approximately 90% C8-C10 Trialkylamine in Combination with 10% 1-Octanol at 75° C.
# Into a 4-mL glass reactor equipped with magnetic stir bar was placed 1 mL of a mixed solvent containing 90% (volume/volume) Alamine® 336 (Cognis), 10% (volume/volume) 1-octanol. The pH of an aqueous solution of ammonium glycolate (5 wt % to 40 wt %) was adjusted to pH 2 to 3 with concentrated sulfuric acid, then 1 mL of the resulting aqueous solution was added to the reactor. The resulting mixture was stirred for 30 minutes at 75° C.
# [2] = Example 17 back extraction with aqueous glycolic acid from loaded solvent (70% Alamine 336/10% MIBK/20% kerosene), 120° C.; conditions: 40 psig nitrogen
# Protocol: as §1
# Following the procedures in Example 1, into a 1-L cylindrical glass vessel on an extraction mixer (mix by rotating back and forth vertically) was placed 100 mL of a mixed solvent containing 70% (volume/volume) Alamine® 336 (Cognis), 10% (volume/volume) methyl isobutyl ketone (MIBK) and 20% (volume/volume) kerosene. The pH of an aqueous solution of ammonium glycolate (10 wt % to 50 wt %) was adjusted to approximately pH 2 to 3 with concentrated sulfuric acid, then 100 mL of the resulting aqueous solution was added to the extraction mixer. […]
# [3] = Example 5 reactive solvent extraction, 90% Alamine 336/10% MIBK, 75° C.; conditions: pH 2 to 3
# Protocol: as §1
# Solvent Extraction Using Approximately 90% C8-C10 Trialkylamine in Combination with 10% Methyl Isobutyl Ketone at 75° C.
# Into a 4-mL glass reactor equipped with magnetic stir bar was placed 1 mL of a mixed solvent containing 90% (volume/volume) Alamine® 336 (Cognis) and 10% (volume/volume) methyl isobutyl ketone (MIBK). The pH of an aqueous solution of ammonium glycolate (5 wt % to 40 wt %) was adjusted to pH 2 to 3 with concentrated sulfuric acid, then 1 mL of the resulting aqueous solution was added to the reactor. The resulting mixture was stirred for 30 minutes at 75° C.
# [4] = Example 1 reactive solvent extraction, 70% Alamine 336/10% MIBK/20% kerosene, 25° C.; conditions: pH 2 to 3
# Source text: A water-immiscible organic solvent (i.e., “first phase”) is subsequently mixed with the second phase, and forms a two-phase system (a water immiscible organic phase and an aqueous phase). The glycolic acid in the second phase forms a complex with the tertiary trialkyl amine in the first phase.
# as §1
# Solvent Extraction Using Approximately 70% C8-C10 Trialkylamine in Combination with 10% Methyl Isobutyl Ketone and 20% Kerosene at 25° C.
# Into a 4-mL glass reactor equipped with magnetic stir bar was placed 1 mL of a mixed solvent containing 70% (volume/volume) of trialkyl amine (Alamine® 336; Cognis Corp., Cincinnati, Ohio), 10% (volume/volume) methyl isobutyl ketone (MIBK) and 20% (volume/volume) kerosene. The pH of an aqueous solution of ammonium glycolate (5 wt % to 40 wt %) was adjusted to about pH 2 to 3 with concentrated sulfuric acid (H2SO4), then 1 mL of the resulting aqueous solution was added to the reactor. The resulting mixture was stirred for 30 minutes at 25° C.
# [5] = Example 23 back extraction with aqueous glycolic acid from loaded solvent (70% trialkylamine/30% toluene), 140° C.; conditions: 70% C8-C10 trialkylamine/30% toluene, 40 psig nitrogen
# Protocol: as §1
# Back Extraction from a Loaded Solvent of Approximately 70% C8-C10 Trialkylamine in Combination with 30% Toluene
# The vessel was then closed, and the headspace purged with nitrogen. The resulting mixture was stirred for 60 minutes at 140° C. under 40 psig (˜275.8 kPa) nitrogen. The stirring was stopped and the two phases allowed to separate at 140° C., then the organic phase was sampled under pressure through the top dip tube into a Hoke cylinder, and aqueous phases was sampled under pressure through the bottom dip tube into another Hoke cylinder.
# [6] = initial 3.6 wt % glycolic acid in aqueous phase
# [7] = initial 8.5 wt % glycolic acid in aqueous phase
# [8] = initial 12.1 wt % glycolic acid in aqueous phase
# [9] = initial 16.1 wt % glycolic acid in aqueous phase
# [10] = initial 20.6 wt % glycolic acid in aqueous phase
# [11] = initial 25.1 wt % glycolic acid in aqueous phase
# [12] = initial 29.1 wt % glycolic acid in aqueous phase
# [13] = initial 32.8 wt % glycolic acid in aqueous phase
smiles,measurement,setting,value
O=C(O)CO [glycolic acid],Partition coefficient (wt % org./wt % aq.),[1]; [6],0.54
same,Partition coefficient (wt % org./wt % aq.),[1]; [7],0.56
same,Partition coefficient (wt % org./wt % aq.),[1]; [8],0.62
same,Partition coefficient (wt % org./wt % aq.),[1]; [9],0.63
same,Partition coefficient (wt % org./wt % aq.),[1]; [10],0.73
same,Partition coefficient (wt % org./wt % aq.),[1]; [11],0.75
same,Partition coefficient (wt % org./wt % aq.),[1]; [12],0.73
same,Partition coefficient (wt % org./wt % aq.),[1]; [13],0.70
same,Partition coefficient (wt % org./wt % aq.),"[2]; initial 20.0 wt % glycolic acid in aqueous phase, 16.0 wt % in loaded solvent",0.59
same,Partition coefficient (wt % org./wt % aq.),"[2]; initial 40.0 wt % glycolic acid in aqueous phase, 17.5 wt % in loaded solvent",0.51
same,Partition coefficient (wt % org./wt % aq.),[3]; [6],0.75
same,Partition coefficient (wt % org./wt % aq.),[3]; [7],0.70
same,Partition coefficient (wt % org./wt % aq.),[3]; [8],0.76
same,Partition coefficient (wt % org./wt % aq.),[3]; [9],0.73
same,Partition coefficient (wt % org./wt % aq.),[3]; [10],0.79
same,Partition coefficient (wt % org./wt % aq.),[3]; [11],0.87
same,Partition coefficient (wt % org./wt % aq.),[3]; [12],0.84
same,Partition coefficient (wt % org./wt % aq.),[3]; [13],0.86
same,Partition coefficient of glycolic acid (organic wt %/aqueous wt %),[4]; [6],1.1
same,Partition coefficient of glycolic acid (organic wt %/aqueous wt %),[4]; [7],1.1
same,Partition coefficient of glycolic acid (organic wt %/aqueous wt %),[4]; [8],1.0
same,Partition coefficient of glycolic acid (organic wt %/aqueous wt %),[4]; [9],0.94
same,Partition coefficient of glycolic acid (organic wt %/aqueous wt %),[4]; [10],0.90
same,Partition coefficient of glycolic acid (organic wt %/aqueous wt %),[4]; [11],0.85
same,Partition coefficient of glycolic acid (organic wt %/aqueous wt %),[4]; [12],0.73
same,Partition coefficient of glycolic acid (organic wt %/aqueous wt %),[4]; [13],0.67
same,Partition coefficient (wt % org./wt % aq.),"[5]; initial 20.0 wt % glycolic acid in aqueous phase, 14.2 wt % in loaded solvent",0.44
same,Partition coefficient (wt % org./wt % aq.),"[5]; initial 40.0 wt % glycolic acid in aqueous phase, 15.7 wt % in loaded solvent",0.45
